# PubChem BioAssay AID720632 (Broad Institute, 2013)
# Active and inactive are the calls of the source. How the calls were made is not given here.
# Target: Caspase-6 (Homo sapiens) (UniProt P55212)
# Test: human caspase-6 inhibitors, dose response, biochemical, VEID-R110 fluorescence, cherry-pick (AID 720632)
# Conditions: caspase-6, VEID-R110 fluorogenic substrate
# Caspase-6 (Homo sapiens), sequence (P55212 24-179 limits assumed): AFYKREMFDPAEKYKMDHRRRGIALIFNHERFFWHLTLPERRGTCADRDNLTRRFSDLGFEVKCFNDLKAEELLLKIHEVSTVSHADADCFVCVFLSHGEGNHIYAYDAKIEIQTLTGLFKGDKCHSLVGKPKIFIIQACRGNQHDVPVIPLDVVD
# Caspase-6 (Homo sapiens), sequence (P55212 194-293 limits assumed): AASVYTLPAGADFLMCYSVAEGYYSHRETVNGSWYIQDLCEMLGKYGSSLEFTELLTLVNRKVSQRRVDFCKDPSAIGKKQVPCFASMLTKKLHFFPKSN
SMILES,"activity change, negative = inhibition (at 26 µM (top of the series))","activity change, negative = inhibition (at 23.5 µM (top of the series))"
O=C(Nc1ccc(NC(=O)C2CC2)cc1)c1cccs1,inactive,
COc1ccccc1N(Cc1ccccc1)S(=O)(=O)c1cccc(C(=O)Nc2ccccn2)c1,inactive,
CC1CCc2[nH]c3ccc(C(=O)O)cc3c2C1 (configuration not stated),inactive,
Cc1cccc(-n2c(C)nc3cc(C(=O)NCCN4CCOCC4)ccc32)c1,inactive,
O=C(COC(=O)Cc1ccc(S(=O)(=O)N2CCOCC2)s1)Nc1ccc(F)cc1F,inactive,
CSc1ccccc1NC(=O)Nc1ccccc1,inactive,
OC(CNC1CCCCC1)COCCOc1ccc(Br)cc1 (configuration not stated),inactive,
CO[C@@H]1CN(C)C(=O)c2ccc(NC(=O)C3CC3)cc2OC[C@@H](C)N(Cc2ccccc2)C[C@@H]1C,inactive,
COc1cc2ccccc2cc1C(=O)N(CCN(C)C)c1nc2c(F)cc(F)cc2s1,inactive,
COc1cc(/C=C2\SC(=O)NC2=O)ccc1Oc1ccc([N+](=O)[O-])cc1[N+](=O)[O-],inactive,
Oc1ccc(/C=N/N=C/c2ccc(O)c(O)c2)cc1O,inactive,
S=c1[nH]c2cc(Cl)c3cccnc3c2o1,inactive,
COc1ccccc1NC(=O)C(C)OC(=O)CCC1CCCCC1 (configuration not stated),inactive,
CC1(C)C(=O)Nc2ccccc2N1C(=O)COC(=O)c1ccc([N+](=O)[O-])o1,inactive,
Nc1ccc(C(=O)N/N=C/c2cn(Cc3ccc(F)cc3)c3ccccc23)cc1,inactive,
O=C(Cc1ccc([N+](=O)[O-])cc1)c1c(O)cc(O)cc1O,inactive,
COc1ccc(N2CCN(C(=O)CCCn3c(=S)[nH]c4cc5c(cc4c3=O)OCO5)CC2)cc1,inactive,
COc1ccccc1C(=O)Nc1ccc2c(c1)OC[C@@H](C)N(CC1CC1)C[C@@H](C)[C@H](OC)CN(C)C2=O,,inactive
O=C(CCOc1ccccc1)N1CCN(S(=O)(=O)c2ccccc2F)CC1,inactive,
O=C(Oc1ccc(Nc2ncnc3ccccc23)cc1)c1cccnc1,inactive,
COc1ccccc1C(=O)Nc1ccc2c(c1)OC[C@@H](C)N(CC1CC1)C[C@H](C)[C@H](OC)CN(C)C2=O,inactive,
CN=C(Nc1cccnc1)c1cccc(C(F)(F)F)c1,inactive,

SMILES,"activity change, negative = inhibition (at 26 µM (top of the series))","activity change, negative = inhibition (at 23.5 µM (top of the series))"
CCCC(=O)Nc1ccc2c(c1)OC[C@H](C)N(Cc1ccc(F)cc1)C[C@@H](C)[C@H](OC)CN(C)C2=O,inactive,
O=C(COC(=O)c1ccccc1OCc1ccccc1Cl)NC1CCS(=O)(=O)C1 (configuration not stated),inactive,
O=C(O)c1ccc(NS(=O)(=O)/C=C/c2ccccc2)cc1O,inactive,
COc1ccc(C=Nc2cccc3ncccc23)cc1,inactive,
COc1cc(N)c(Cl)cc1C(=O)NC1CCN(Cc2ccccc2)CC1,inactive,
CN1C(=O)CCS(=O)(=O)C1c1ccc(Cl)c(Cl)c1 (configuration not stated),inactive,
CCN(CC)c1nc(N)c2c(N)nc(OC)cc2c1C#N,inactive,
CC(C)CNC(=O)C1(C)CCCN1C(=O)Cc1cccc2ccccc12 (configuration not stated),inactive,
O=C1Nc2cc(Cl)cnc2N2CCCC12 (configuration not stated),inactive,
O=C(Cn1cncn1)NCCCc1ccccc1,inactive,
COc1cc(Br)cc(CN2CCN(C/C=C/c3ccccc3)CC2)c1O,inactive,
CCCN1C[C@@H](C)[C@@H](OC)CN(C)C(=O)c2ccc(NC(=O)c3ccccc3)cc2OC[C@@H]1C,inactive,
O=C(Nc1cccc(-c2ccccc2)c1)N1CCN(C(=O)Nc2cccc(-c3ccccc3)c2)CC1,inactive,
CCCCn1c(N)c(N(CCC(C)C)C(=O)COC(=O)c2ccc([N+](=O)[O-])s2)c(=O)[nH]c1=O,inactive,
CCCC(=O)Nc1ccc2c(c1)OC[C@H](C)N(CCC)C[C@H](C)[C@@H](OC)CN(C)C2=O,inactive,
O=C(N/N=C/c1cccc(O)c1)c1ccccc1O,inactive,
O=C1Cc2cc(S(=O)(=O)N3CCN(c4ccc(C(=O)O)cc4)CC3)ccc2N1,inactive,
CC1CCCN(CC(O)COC(c2ccccc2)c2ccccc2)C1 (configuration not stated),inactive,
COc1cc2[nH]c(Cl)c([N+](=O)[O-])c2cc1OC,inactive,
Cc1ccc(NC(=O)CCC(=O)NNC(=O)COc2ccccc2)c(C)c1,inactive,
O=S(=O)(NCc1cccnc1)c1ccc(Cl)cc1,inactive,
CC(=O)c1ccc(S(=O)(=O)N2CCN(C(=O)c3ccc(-n4cncn4)c([N+](=O)[O-])c3)CC2)cc1,inactive,

SMILES,"activity change, negative = inhibition (at 26 µM (top of the series))","activity change, negative = inhibition (at 23.5 µM (top of the series))"
CCC(NS(=O)(=O)c1ccc(C)cc1)C(=O)N1CCOCCOCCOCC1 (configuration not stated),inactive,
COc1cc(OC)c(-c2nn3c(C4CCCCC4)nnc3s2)cc1OC,inactive,
COc1cccc(CN2CCc3[nH]c(=S)[nH]c(=O)c3C2)c1,inactive,
Cc1nc2ccc(NS(=O)(=O)c3c(F)cc(F)cc3Br)cc2s1,inactive,
CO[C@@H]1CN(C)C(=O)c2ccc(NC(=O)C3CC3)cc2OC[C@H](C)N(Cc2cccc(F)c2)C[C@@H]1C,inactive,
O=[N+]([O-])c1ccc(NCCN2CCOCC2)c([N+](=O)[O-])c1,inactive,
CO[C@@H]1CN(C)C(=O)c2ccc(NC(=O)C3CC3)cc2OC[C@@H](C)N(Cc2cccc(F)c2)C[C@@H]1C,,inactive
CC(C)NC(=O)C1(C)CCN1C(=O)c1ccc2c(c1)OCO2 (configuration not stated),inactive,
CN1CC(=O)N2Cc3[nH]c4ccccc4c3C[C@H]2C1=O,inactive,
Nc1cccnc1Oc1ccc(F)cc1F,inactive,
Cc1ccccc1C(=O)O/N=C(\N)c1ccccc1,inactive,
O=C(COC(=O)c1ccc([N+](=O)[O-])o1)NC1CCCCC1,inactive,
CCCC(=O)Nc1ccc2c(c1)OC[C@@H](C)NC[C@@H](C)[C@@H](OC)CN(C)C2=O,inactive,
CCc1nc2c(OCc3ccc(C(=O)OC)cc3)cccn2c1N(C)C(=O)c1ccc(C)cc1,inactive,
O=C(ONC(=O)C1CCCCC1C(=O)NOC(=O)c1ccccc1)c1ccccc1 (configuration not stated),inactive,
O=C(NCC(=O)N1CC=C(c2ccccc2)CC1)c1ccccc1Br,inactive,
Cc1ccc(-c2[nH]c3cc(C(=O)NCCCn4ccnc4)ccc3c(=O)c2O)cc1,inactive,
C#CCNC(=O)C[C@@H]1C[C@@]2(C(=O)OCC)CCC=C2N(Cc2ccc(Cl)cc2Cl)C1=O,inactive,
COc1cccc(/C=N/Nc2nc(C)cc(=O)[nH]2)c1OC,inactive,
Cc1ccc(NC(=O)c2sc(C)nc2C)c(C)c1,inactive,
CCCc1cc(-c2n[nH]c(C(=O)OCC)c2-c2cscn2)c(O)cc1O,inactive,
CC(=O)Nc1cccc(NC(=O)c2cc([N+](=O)[O-])ccc2N2CCCCC2)c1,inactive,

SMILES,"activity change, negative = inhibition (at 26 µM (top of the series))","activity change, negative = inhibition (at 23.5 µM (top of the series))"
Cc1ccc([N+](=O)[O-])cc1NC(=O)C(C)N1CCCCC1 (configuration not stated),inactive,
CCCN1C[C@H](C)[C@H](OC)CN(C)C(=O)c2ccc(NC(=O)CC)cc2OC[C@@H]1C,inactive,
Oc1cc(Nc2cccnc2)cc2cccnc12,inactive,
O=C(NNC(=O)c1ccccc1O)c1ccccc1O,inactive,
CCOC(=O)C1=C(COC(=O)c2ccc([N+](=O)[O-])s2)NC(=O)NC1C (configuration not stated),inactive,
COc1ccc(OCCN2CCC(C(=O)NC(c3ccccn3)c3ccccc3OC)CC2)cc1 (configuration not stated),inactive,
Cc1[nH]ncc1Nc1c(C(C)C)cccc1C(C)C,inactive,
COc1ccc(CN=C(N)N=C(N)N)cc1Cl,inactive,
CO[C@@H]1CN(C)C(=O)c2ccc(NC(=O)C3CC3)cc2OC[C@H](C)N(Cc2ccccc2)C[C@H]1C,inactive,
COC(=O)C[C@@H]1CC[C@H](NC(=O)c2ccc3c(c2)OCO3)[C@@H](CO)O1,inactive,
O=C(C[C@@H]1C=C[C@H](NC(=O)C2CC2)[C@H](CO)O1)Nc1nccs1,inactive,
CC1(C)COC(/C=C/c2cccc([N+](=O)[O-])c2)=N1,inactive,
CC(C)(O)c1cn([C@@H]2C[C@@H]3O[C@@H](CO)CC[C@@H]3O[C@@H]2CCc2ccc(-c3ccncc3)cc2)nn1,inactive,
COCC(=O)N1[C@@H]2CN(C(=O)Nc3ccccc3F)c3ccccc3[C@@H]2[C@@H]1CO,,inactive
CCOC(=O)CC1C(=O)NCCN1S(=O)(=O)c1cccc(C(F)(F)F)c1 (configuration not stated),inactive,
CN(c1ccc(C(=O)Nc2ccc3c(c2)n(C)c(=O)n3C)cc1)S(C)(=O)=O,inactive,
CCCCCc1ccc(CC(=O)N2CCOCC2)cc1,inactive,
CC(=O)N1CCc2c(sc(NC(=O)C3CCCCC3)c2C(N)=O)C1,inactive,
COC(=O)[C@H]1[C@H](CO)[C@H]2Cn3c(cccc3=O)[C@H]2N1CC1CCOCC1,inactive,
O=C(N/N=C/c1ccc([N+](=O)[O-])o1)c1ccccc1NS(=O)(=O)c1cccs1,inactive,
COc1cc(OC)c(NS(=O)(=O)c2c(C)[nH]c(=O)[nH]c2=O)cc1Cl,inactive,
